Assay results from US4740233A, “Substituted 1,2,4-triazolo[1,5-a]-pyrimidine-2-sulfonamides and compositions and methods of controlling undesired vegetation and suppressing the nitrification of ammonium nitrogen in soil” (The Dow Chemical Company, priority 1986, dated 1988).

Assays:
[1] = system: sugar beet; experiment: Preemergent control of plant species; format: in vivo, Beta saccharifera; conditions: 0.25 lb/acre; for plant injury at 280.212 g/ha: Beta vulgaris, pre-emergence, 336 h, read-out: percent preemergent control
Experimental: (§1) The seeds of various species of plants were planted in beds of good agricultural soil in a greenhouse. A number of compositions of the present invention, generally in the nature of an aqueous emulsion, were applied at rates listed in the table so as to deposit a predetermined amount of active ingredients uniformly throughout the surface of the bed. Another seed bed was treated only with water to serve as a control. After treatment the seed beds were maintained for two weeks under greenhouse conditions conducive for good plant growth and watered as necessary. Control refers to the reduction in growth compared to the observed results of the same untreated species.

[2] = system: wild oats; experiment: Preemergent control of plant species; format: in vivo; conditions: Avena fatua, pre-emergence, 336 h; 0.25 lb/acre; read-out: percent preemergent control
Experimental: as §1

[3] = system: velvetleaf; experiment: Preemergent control of plant species; format: in vivo, Abutilon theophrasti; conditions: 0.25 lb/acre; for pest or weed control at 280.212 g/ha: Abutilon theophrasti, pre-emergence, 336 h, read-out: percent preemergent control
Experimental: as §1

[4] = system: cotton; experiment: Preemergent control of plant species; format: in vivo, Gossypium spp.; conditions: 0.25 lb/acre; for plant injury at 280.212 g/ha: Gossypium hirsutum, pre-emergence, 336 h, read-out: percent preemergent control
Experimental: as §1

[5] = system: soybean; experiment: Preemergent control of plant species; format: in vivo, Glycine max.; conditions: 0.25 lb/acre; for plant injury at 280.212 g/ha: Glycine max, pre-emergence, 336 h, read-out: percent preemergent control
Experimental: as §1

[6] = system: rape; experiment: Preemergent control of plant species; format: in vivo, Brassica napus; conditions: 0.25 lb/acre; for plant injury at 280.212 g/ha: Brassica napus, pre-emergence, 336 h, read-out: percent preemergent control
Experimental: as §1

[7] = system: johnson grass; experiment: Preemergent control of plant species; format: in vivo, Sorghum halepense; conditions: 0.25 lb/acre; for pest or weed control at 280.212 g/ha: Sorghum halepense, pre-emergence, 336 h, read-out: percent preemergent control
Experimental: as §1

[8] = system: yellow nutsedge; experiment: Preemergent control of plant species; format: in vivo, Cyperus esculentus; conditions: 0.25 lb/acre; for pest or weed control at 280.212 g/ha: Cyperus, pre-emergence, 336 h, read-out: percent preemergent control
Experimental: as §1

[9] = system: nitrification of ammonium nitrogen; experiment: Suppression of nitrification of ammonium nitrogen in soil; conditions: 27° C.
Experimental: A sufficient volume of water was added to 20 g of the soil in a wide-mouth, screw-cap, 4-ounce, glass bottle, such that the moisture content of the mixture was made equal to the 1/3 bar tension value for that soil. The mixture was thoroughly mixed before sealing. […] Acetone slows the rate of soil nitrification and its concentration must be carefully controlled. Single samples of each test chemical were incubated for two weeks at 27° C.
The experiment comprised the following types of samples:
The soil samples were analyzed as follows: Sufficient ammonium sulfate extracting solution was added to the sample, such that the total volume of added water was 50 ml (included water added during sample preparation). The capped mixture was shaken 10 minutes to solubilize nitrate and the soil particulates were allowed to settle. The nitrate concentration in the water phase was determined with a nitrate-specific ion electrode such as Orion Model 93-07.
The non-nitrate nitrogen remaining (% NH4 -N remaining) in the soil after two weeks (performance value) was calculated as follows: [formula]

[10] = system: sorghum; experiment: Preemergent control of plant species; format: in vivo, Sorghum vulgare; conditions: 0.25 lb/acre; for plant injury at 280.212 g/ha: Sorghum, pre-emergence, 336 h, read-out: percent preemergent control
Experimental: as §1

[11] = system: corn; experiment: Preemergent control of plant species; format: in vivo, Zea mays; conditions: 0.25 lb/acre; for plant injury at 280.212 g/ha: Zea mays, pre-emergence, 336 h, read-out: percent preemergent control
Experimental: as §1

[12] = system: jimsonweed; experiment: Preemergent control of plant species; format: in vivo, Datura stramonium; conditions: 0.25 lb/acre; for pest or weed control at 280.212 g/ha: Datura stramonium, pre-emergence, 336 h, read-out: percent preemergent control
Experimental: as §1

[13] = system: annual morning glory; experiment: Preemergent control of plant species; format: in vivo, Ipomoea spp.; conditions: 0.25 lb/acre; for pest or weed control at 280.212 g/ha: Ipomoea, pre-emergence, 336 h, read-out: percent preemergent control
Experimental: as §1

[14] = system: yellow foxtail; experiment: Preemergent control of plant species; format: in vivo, Setaria lutescens; conditions: 0.25 lb/acre; for pest or weed control at 280.212 g/ha: Setaria, pre-emergence, 336 h, read-out: percent preemergent control
Experimental: as §1

[15] = system: rice; experiment: Preemergent control of plant species; format: in vivo, Oryza sativa; conditions: 0.25 lb/acre; for plant injury at 280.212 g/ha: Oryza sativa, pre-emergence, 336 h, read-out: percent preemergent control
Experimental: as §1

[16] = system: wheat; experiment: Preemergent control of plant species; format: in vivo, Triticum aestivum; conditions: 0.25 lb/acre; for plant injury at 280.212 g/ha: Triticum aestivum, pre-emergence, 336 h, read-out: percent preemergent control
Experimental: as §1

[17] = system: barnyardgrass; experiment: Preemergent control of plant species; format: in vivo, Echinochloa crusgalli; conditions: 0.25 lb/acre; for pest or weed control at 280.212 g/ha: Echinochloa crus-galli, pre-emergence, 336 h, read-out: percent preemergent control
Experimental: as §1

Row | SMILES | plant injury at 280.212 g/ha [1] | pest or weed control at 280.212 g/ha [2] | pest or weed control at 280.212 g/ha [3] | plant injury at 280.212 g/ha [4] | plant injury at 280.212 g/ha [5] | plant injury at 280.212 g/ha [6] | pest or weed control at 280.212 g/ha [7] | pest or weed control at 280.212 g/ha [8] | % NH4-N Remaining After 2 Weeks Incubation ([9]; 0.06 ppm) | % NH4-N Remaining After 2 Weeks Incubation ([9]; 0.25 ppm) | % NH4-N Remaining After 2 Weeks Incubation ([9]; 1 ppm) | % NH4-N Remaining After 2 Weeks Incubation ([9]; 4 ppm) | plant injury at 280.212 g/ha [10] | plant injury at 280.212 g/ha [11] | pest or weed control at 280.212 g/ha [12] | pest or weed control at 280.212 g/ha [13] | pest or weed control at 280.212 g/ha [14] | plant injury at 280.212 g/ha [15] | plant injury at 280.212 g/ha [16] | pest or weed control at 280.212 g/ha [17] | also measured
1 | CC(=O)N(c1c(Cl)cccc1Cl)S(=O)(=O)c1nc2nc(C)ccn2n1 [Compound 268] | 100% | 30% | 100% | 100% | 0% | 100% | 80% | 100% | 53% | 71% | 80% | 92% | 100% | 80% | 100% | 90% | 100% | 100% | – | – | –
2 | Cc1cc(C)n2nc(S(=O)(=O)Nc3c(F)cccc3C(=O)OC(C)(C)C)nc2n1 [Compound 56] | 100% | 0% | 50% | 0% | 0% | 100% | 0% | 70% | 0% | 37% | 59% | 78% | – | 30% | 0% | 90% | 20% | 0% | 0% | 0% | –
3 | Cc1cnc2nc(S(=O)(=O)Nc3c(Cl)cccc3Cl)nn2c1 [Compound 192] | 100% | 0% | 100% | 95% | 90% | 100% | 0% | 90% | 21% | 48% | 74% | 86% | – | 10% | 100% | 97% | 70% | 0% | 0% | 0% | –
4 | Cc1ccn2nc(S(=O)(=O)Nc3c(C)cccc3Cl)nc2n1 [Compound 144] | 100% | 70% | 100% | 100% | 60% | 100% | 100% | 100% | 16% | 43% | 63% | 92% | – | 70% | 100% | 95% | 100% | 40% | 0% | 80% | –
5 | O=S(=O)(Nc1c(F)cccc1F)c1nc2ncccn2n1 [Compound 138] | 90% | – | 90% | 100% | 50% | 100% | 90% | 80% | – | – | – | – | 50% | 30% | 20% | 20% | 90% | 50% | 10% | 0% | –
6 | COc1nc2nc(S(=O)(=O)Nc3ccccc3C(F)(F)F)nn2cc1C [Compound 217] | 100% | – | 100% | 100% | 100% | 100% | 100% | 70% | – | – | – | – | 100% | 50% | 100% | 100% | 50% | 90% | 100% | 90% | –
7 | Cc1cn2nc(S(=O)(=O)Nc3c(Cl)cccc3Cl)nc2nc1C [Compound 205] | 100% | 50% | 100% | 100% | 90% | 100% | 0% | 70% | 32% | 38% | 76% | 81% | – | 95% | 100% | 75% | 0% | 50% | 0% | 50% | –
8 | Cc1cc(C(F)(F)F)n2nc(S(=O)(=O)Nc3c(Cl)ccc(C)c3Cl)nc2n1 [Compound 229] | 100% | – | 90% | 100% | 30% | 100% | 0% | 100% | – | – | – | – | 90% | 40% | 90% | 100% | 0% | 10% | 0% | 0% | –
9 | Cc1ccc(Cl)c(NS(=O)(=O)c2nc3nc(C)c(Cl)c(C)n3n2)c1Cl [Compound 199] | 90% | 0% | 70% | 20% | 70% | 100% | 0% | 0% | 40% | 63% | 78% | 88% | – | 0% | 0% | 20% | 0% | 0% | – | – | –
10 | Cc1ccn2nc(S(=O)(=O)Nc3c(F)cccc3[N+](=O)[O-])nc2n1 [Compound 173] | – | – | – | – | – | – | – | – | – | – | – | – | – | – | – | – | – | – | – | – | percent preemergent control [1]: 90%; percent preemergent control [3]: 0%; percent preemergent control [4]: 50%; percent preemergent control [5]: 0%; percent preemergent control [6]: 80%; percent preemergent control [7]: 70%; percent preemergent control [8]: 0%; percent preemergent control [16]: 20%; percent preemergent control [10]: 30%; percent preemergent control [11]: 30%; percent preemergent control [12]: 0%; percent preemergent control [13]: 0%; percent preemergent control [17]: 30%; percent preemergent control [14]: 50%; percent preemergent control [15]: 70%
